# Results taken from ChEMBL document CHEMBL5252607, “Synthesis and biological evaluation of coumarin derivatives as selective CYP2A6 inhibitors” (Bioorg Med Chem Lett, 2023).
# What was measured:
# Type in all cases: ADME
# CYP2A6 = target: T1, CYP2A6 (Homo sapiens, UniProt P11509); assay: Inhibition of CYP2A6 (unknown origin) assessed as residual activity preincubated for 10 mins
# T1 sequence (P11509 whole entry): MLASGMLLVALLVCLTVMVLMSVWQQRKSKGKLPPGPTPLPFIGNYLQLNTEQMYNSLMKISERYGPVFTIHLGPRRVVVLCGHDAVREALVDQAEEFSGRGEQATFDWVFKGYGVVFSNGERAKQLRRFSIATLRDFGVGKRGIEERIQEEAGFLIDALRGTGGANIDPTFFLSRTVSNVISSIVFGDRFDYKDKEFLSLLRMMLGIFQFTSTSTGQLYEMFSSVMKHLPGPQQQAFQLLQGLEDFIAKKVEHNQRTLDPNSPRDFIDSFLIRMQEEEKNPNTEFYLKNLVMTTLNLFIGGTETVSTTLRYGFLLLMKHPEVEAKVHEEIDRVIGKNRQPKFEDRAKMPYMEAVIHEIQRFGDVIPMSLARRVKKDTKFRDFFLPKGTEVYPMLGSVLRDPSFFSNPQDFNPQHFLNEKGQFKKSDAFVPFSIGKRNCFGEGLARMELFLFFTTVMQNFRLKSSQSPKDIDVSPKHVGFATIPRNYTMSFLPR
# Cytochrome P450 3A4 [1] = target: T2, Cytochrome P450 3A4 (Homo sapiens, UniProt P08684); assay: Inhibition of CYP3A4 (unknown origin)
# T2 sequence (P08684 whole entry): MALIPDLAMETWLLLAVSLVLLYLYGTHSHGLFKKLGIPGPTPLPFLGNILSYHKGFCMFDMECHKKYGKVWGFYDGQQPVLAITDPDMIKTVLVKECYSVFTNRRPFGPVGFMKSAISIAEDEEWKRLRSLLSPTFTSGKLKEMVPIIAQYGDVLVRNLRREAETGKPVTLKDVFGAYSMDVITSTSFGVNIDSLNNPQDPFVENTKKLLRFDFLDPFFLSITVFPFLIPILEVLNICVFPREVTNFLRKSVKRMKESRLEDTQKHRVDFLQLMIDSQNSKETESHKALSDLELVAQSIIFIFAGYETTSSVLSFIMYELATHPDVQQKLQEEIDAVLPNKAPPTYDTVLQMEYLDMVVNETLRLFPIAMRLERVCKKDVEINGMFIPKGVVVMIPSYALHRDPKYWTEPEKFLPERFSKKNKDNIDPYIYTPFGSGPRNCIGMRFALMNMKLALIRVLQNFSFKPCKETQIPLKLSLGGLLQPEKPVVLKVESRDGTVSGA
# Cytochrome P450 2A6 [2] = target: T3, Cytochrome P450 2A6 (Homo sapiens, UniProt P11509); assay: Inhibition of CYP2A6 (unknown origin)
# T3 sequence (P11509 whole entry): T1 sequence (P11509 whole entry)
# Cytochrome P450 2A6 [3] = target: T3, Cytochrome P450 2A6; assay: Competitive inhibition of CYP2A6 (unknown origin)
# Cytochrome P450 2A6 [4] = target: T3, Cytochrome P450 2A6; assay: Mixed type inhibition of CYP2A6 (unknown origin)
# Cytochrome P450 3A4 [5] = target: T2, Cytochrome P450 3A4; assay: Non competitive inhibition of CYP3A4 (unknown origin)
# CYP3A4 / CYP2A6 [6] = assay: Selectivity ratio of Ki for non-competitive inhibition of CYP3A4 (unknown origin) to ratio of Ki for mixed type inhibition of CYP2A6 (unknown origin); settings: human; read-out: Ratio Ki
# Cytochrome P450 3A4 [7] = target: T2, Cytochrome P450 3A4; assay: Mixed type inhibition of CYP3A4 (unknown origin)
# CYP3A4 / CYP2A6 [8] = assay: Selectivity ratio of Ki for mixed type inhibition of CYP3A4 (unknown origin) to ratio of Ki for competitive inhibition of CYP2A6 (unknown origin); settings: human; read-out: Ratio Ki
# CYP3A4 / CYP2A6 [9] = assay: Selectivity ratio of Ki for non-competitive inhibition of CYP3A4 (unknown origin) to ratio of Ki for competitive inhibition of CYP2A6 (unknown origin); settings: human; read-out: Ratio Ki
SMILES,activity (CYP2A6) [%],IC50 (Cytochrome P450 3A4 [1]) [µM],IC50 (Cytochrome P450 2A6 [2]) [nM],Ki (Cytochrome P450 2A6 [3]) [nM],Ki (Cytochrome P450 2A6 [4]) [nM],Ki (Cytochrome P450 3A4 [5]) [µM],Ki (Cytochrome P450 3A4 [7]) [µM],selectivity ratio (CYP3A4 / CYP2A6 [6]),selectivity ratio (CYP3A4 / CYP2A6 [8]),selectivity ratio (CYP3A4 / CYP2A6 [9])
COc1c2occc2cc2ccc(=O)oc12 [METHOXSALEN],52,,,,,,,,,
CCCOc1cccc2oc(=O)ccc12,,> 250,1060,540,,,,,,
COc1ccc2oc(=O)ccc2c1,,> 250,200,250,,,,,,
COc1cccc2ccc(=O)oc12,62,> 250,7470,4000,,,,,,

# The next lines start with results.
activity (CYP2A6) [%],IC50 (Cytochrome P450 3A4 [1]) [µM],IC50 (Cytochrome P450 2A6 [2]) [nM],Ki (Cytochrome P450 2A6 [3]) [nM],Ki (Cytochrome P450 2A6 [4]) [nM],Ki (Cytochrome P450 3A4 [5]) [µM],Ki (Cytochrome P450 3A4 [7]) [µM],SMILES,selectivity ratio (CYP3A4 / CYP2A6 [6]),selectivity ratio (CYP3A4 / CYP2A6 [8]),selectivity ratio (CYP3A4 / CYP2A6 [9])
,,130,,50,448,,COc1cccc2oc(=O)ccc12,8970,,
57,,40,10,,,46.6,C#CCOc1cccc2oc(=O)ccc12,,4660,
,,50,30,,,28.1,C=CCOc1cccc2oc(=O)ccc12,,937,
,,170,80,,424,,CCOc1cccc2oc(=O)ccc12,,,5300
